Measurements taken from US11390604B2 (Hoffmann-La Roche Inc., priority 2019, dated 2022).
Structures can show the parent of a compound that is named as a salt.

system: Acinetobacter baumannii ATCC 17961; assay: Antimicrobial susceptibility testing: 90% growth inhibitory concentration (IC90) determination; type: cell-based; conditions: ATCC17961, Acinetobacter baumannii ATCC 17961, Iso-Sensitest broth, read-out: ATCC 17961 IC90
Outline: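 Broth microdilution in Iso-Sensitest medium, twofold series (e.g. 50 to 0.097 μM final), ~5×10^5 CFU/ml inoculum, 35±2 °C. OD600 read every 20 min over 16 h. IC90 derived from growth inhibition during logarithmic phase.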

Row | Structure (SMILES) | IC90 [nM]
1 | C#CCn1cc(-c2cnc(C(=O)Nc3ccc(C(=O)N4CCN(C(=O)NC5CNC5)CC4)c(Cl)c3)n2C)c(C(F)(F)F)n1 [Example 51, N-(Azetidin-3-yl)-4-(2-chloro-4-(1-methyl-5-(1-(prop-2-yn-1-yl)-3-(trifluoromethyl)-1H-pyrazol-4-yl)-1H-imidazole-2-carboxamido)benzoyl)piperazine-1-carboxamide Hydrochloride] | 122
2 | C#CCn1cc(-c2cnc(C(=O)Nc3ccc(C(=O)N4CCN(C(=O)NCC5(O)CNC5)CC4)c(Cl)c3)n2C)c(C(F)(F)F)n1 [Example 52, 4-(2-chloro-4-(1-methyl-5-(1-(prop-2-yn-1-yl)-3-(trifluoromethyl)-1H-pyrazol-4-yl)-1H-imidazole-2-carboxamido)benzoyl)-N-((3-hydroxyazetidin-3-yl)methyl)piperazine-1-carboxamide hydrochloride] | 192
3 | C#CCn1cc(-c2cnc(C(=O)Nc3ccc(C(=O)N4CCN(C(=O)N[C@H]5CCNC5)CC4)c(Cl)c3)n2C)c(C(F)(F)F)n1 [Example 53, (S)-4-(2-chloro-4-(1-methyl-5-[1-(prop-2-yn-1-yl)-3-(trifluoromethyl)-1H-pyrazol-4-yl)-1H-imidazole-2-carboxamido)benzoyl)-N-(pyrrolidin-3-yl)piperazine-1-carboxamide hydrochloride] | 161
4 | Cn1c(-c2cn(C3CC3)nc2C(F)(F)F)cnc1C(=O)Nc1ccc(C(=O)N2CCN(C(=O)C3CCNCC3)CC2)c(Cl)c1 [Example 54, N-(3-Chloro-4-(4-(piperidine-4-carbonyl)piperazine-1-carbonyl)phenyl)-5-(1-cyclopropyl-3-(trifluoromethyl)-1H-pyrazol-4-yl)-1-methyl-1H-imidazole-2-carboxamide hydrochloride] | 335
5 | Cn1cc(-c2cnc(C(=O)Nc3ccc(C(=O)N4CCN(C(=O)[C@@H]5C[C@@H](O)CN5)CC4)c(Cl)c3)n2C)c(C(F)(F)F)n1 [Example 55, N-[3-Chloro-4-[4-[(2S,4R)-4-hydroxypyrrolidine-2-carbonyl]piperazine-1-carbonyl]phenyl]-1-methyl-5-[1-methyl-3-(trifluoromethyl)pyrazol-4-yl]imidazole-2-carboxamide] | 1940
6 | Cn1cc(-c2cnc(C(=O)Nc3ccc(C(=O)N4CCN(C(=O)C5(O)CCNCC5)CC4)c(Cl)c3)n2C)c(C(F)(F)F)n1 [Example 56, N-[3-Chloro-4-[4-(4-hydroxypiperidine-4-carbonyl)piperazine-1-carbonyl]phenyl]-1-methyl-5-[1-methyl-3-(trifluoromethyl)pyrazol-4-yl]imidazole-2-carboxamide 2,2,2-trifluoroacetate] | 1510
7 | CCc1cc(NC(=O)c2ncc(-c3cn(C)nc3C(F)(F)F)n2C)ccc1C(=O)NCCOCCN [Example 57, N-(4-((2-(2-aminoethoxy)ethyl)carbamoyl)-3-ethylphenyl)-1-methyl-5-(1-methyl-3-(trifluoromethyl)-1H-pyrazol-4-yl)-1H-imidazole-2-carboxamide hydrochloride] | 4150
8 | CN(C)CC(=O)N1CCN(S(=O)(=O)c2ccc(NC(=O)c3ncc(-c4c[nH]nc4C(F)(F)F)n3C)cc2Cl)CC1 [Example 58, N-(3-Chloro-4-((4-(dimethylglycyl)piperazin-1-yl)sulfonyl)phenyl)-1-methyl-5-(3-(trifluoromethyl)-1H-pyrazol-4-yl)-1H-imidazole-2-carboxamide] | 952
9 | Cn1c(-c2c[nH]nc2C(F)(F)F)cnc1C(=O)Nc1ccc(S(=O)(=O)N2CCN(C(=O)[C@@H]3C[C@@H](O)CN3)CC2)c(Cl)c1 [Example 59, N-(3-Chloro-4-((4-((2S,4R)-4-hydroxypyrrolidine-2-carbonyl)piperazin-1-yl)sulfonyl)phenyl)-1-methyl-5-(3-(trifluoromethyl)-1H-pyrazol-4-yl)-1H-imidazole-2-carboxamide Hydrochloride] | 823
10 | Cn1c(-c2cn(CC#N)nc2C(F)(F)F)cnc1C(=O)Nc1ccc(C(=O)N2CCN(C(=O)C3(O)CCNCC3)CC2)c(Cl)c1 [Example 60, N-[3-Chloro-4-[4-(4-hydroxypiperidine-4-carbonyl)piperazine-1-carbonyl]phenyl]-5-[1-(cyanomethyl)-3-(trifluoromethyl)pyrazol-4-yl]-1-methyl-imidazole-2-carboxamide; Formic Acid] | 468
11 | Cn1c(-c2cn(CC#N)nc2C(F)(F)F)cnc1C(=O)Nc1ccc(C(=O)N2CCN(C(=O)C3CCNCC3)CC2)c(Cl)c1 [Example 61, N-[3-Chloro-4-[4-(piperidine-4-carbonyl)piperazine-1-carbonyl]phenyl]-5-[1-(cyanomethyl)-3-(trifluoromethyl)pyrazol-4-yl]-1-methyl-imidazole-2-carboxamide Formate] | 506
12 | C[C@H](N)C(=O)N1CCN(C(=O)c2ccc(NC(=O)c3ncc(-c4cn(Cc5cccnc5)nc4C(F)(F)F)n3C)cc2Cl)CC1 [Example 62, N-[4-[4-[(2S)-2-Aminopropanoyl]piperazine-1-carbonyl]-3-chlorophenyl]-1-methyl-5-[1-(pyridin-3-ylmethyl)-3-(trifluoromethyl)pyrazol-4-yl]imidazole-2-carboxamide trihydrochloride] | 834
13 | Cn1c(-c2cn(Cc3cccnc3)nc2C(F)(F)F)cnc1C(=O)Nc1ccc(C(=O)N2CCN(C(=O)[C@H]3C[C@H](N)C3)CC2)c(Cl)c1 [Example 63, rac-N-(4-(4-((1r,3r)-3-aminocyclobutane-1-carbonyl)piperazine-1-carbonyl)-3-chlorophenyl)-1-methyl-5-(1-(pyridin-3-ylmethyl)-3-(trifluoromethyl)-1H-pyrazol-4-yl)-1H-imidazole-2-carboxamide trihydrochloride] | 517
14 | Cn1c(-c2cn(Cc3cccnc3)nc2C(F)(F)F)cnc1C(=O)Nc1ccc(C(=O)N2CCN(C(=O)[C@H]3CC[C@@H](N)C3)CC2)c(Cl)c1 [Example 64, N-(4-(4-((1S,3R)-3-aminocyclopentane-1-carbonyl)piperazine-1-carbonyl)-3-chlorophenyl)-1-methyl-5-(1-(pyridin-3-ylmethyl)-3-(trifluoromethyl)-1H-pyrazol-4-yl)-1H-imidazole-2-carboxamide trihydrochloride] | 4660
15 | Cn1c(-c2c[nH]nc2-c2ccccc2)cnc1C(=O)Nc1ccc(C(=O)N2CCN(C(=O)C3CCNCC3)CC2)c(Cl)c1 [Example 66, N-[3-chloro-4-[4-(piperidine-4-carbonyl)piperazine-1-carbonyl]phenyl]-1-methyl-5-(3-phenyl-1H-pyrazol-4-yl)imidazole-2-carboxamide] | 825
16 | Cn1c(-c2cn(Cc3cccnc3)nc2C(F)(F)F)cnc1C(=O)Nc1ccc(C(=O)N2CCNCC2)c(Cl)c1 [Example 67, N-[3-chloro-4-(piperazine-1-carbonyl)phenyl]-1-methyl-5-[1-(pyridin-3-ylmethyl)-3-(trifluoromethyl)pyrazol-4-yl]imidazole-2-carboxamide;hydrochloride] | 1440
17 | Cn1c(-c2cn(CCF)nc2C(F)(F)F)cnc1C(=O)Nc1ccc(C(=O)N2CCNCC2)c(Cl)c1 [Example 68, N-[3-chloro-4-(piperazine-1-carbonyl)phenyl]-5-[1-(2-fluoroethyl)-3-(trifluoromethyl)pyrazol-4-yl]-1-methylimidazole-2-carboxamide;hydrochloride] | 489
18 | Cn1c(-c2cn(CC#N)nc2C(F)(F)F)cnc1C(=O)Nc1ccc(C(=O)N2CCNCC2)c(Cl)c1 [Example 69, N-[3-chloro-4-(piperazine-1-carbonyl)phenyl]-5-[1-(cyanomethyl)-3-(trifluoromethyl)pyrazol-4-yl]-1-methylimidazole-2-carboxamide;2,2,2-trifluoroacetic acid] | 309
19 | Cn1c(-c2cn(Cc3cccnc3)nc2C(F)(F)F)cnc1C(=O)Nc1ccc(C(=O)N2CCN(C(=O)[C@H]3CCNC3)CC2)c(Cl)c1 [Example 70, N-[3-chloro-4-[4-[(3S)-pyrrolidine-3-carbonyl]piperazine-1-carbonyl]phenyl]-1-methyl-5-[1-(pyridin-3-ylmethyl)-3-(trifluoromethyl)pyrazol-4-yl]imidazole-2-carboxamide] | 497
20 | C[C@H](N)C(=O)N1CCN(C(=O)c2ccc(NC(=O)c3ncc(-c4cn(CC#N)nc4C(F)(F)F)n3C)cc2Cl)CC1 [Example 71, N-[4-[4-[(2S)-2-aminopropanoyl]piperazine-1-carbonyl]-3-chlorophenyl]-5-[1-(cyanomethyl)-3-(trifluoromethyl)pyrazol-4-yl]-1-methylimidazole-2-carboxamide;2,2,2-trifluoroacetic acid] | 216
21 | Cn1c(-c2cn(CC#N)nc2C(F)(F)F)cnc1C(=O)Nc1ccc(C(=O)N2CCN(C(=O)C3(O)CCCNC3)CC2)c(Cl)c1 (centres unmarked) [Example 72, N-[3-chloro-4-[4-(3-hydroxypiperidine-3-carbonyl)piperazine-1-carbonyl]phenyl]-5-[1-(cyanomethyl)-3-(trifluoromethyl)pyrazol-4-yl]-1-methylimidazole-2-carboxamide;2,2,2-trifluoroacetic acid] | 2260
22 | Cn1c(-c2cn(CC#N)nc2C(F)(F)F)cnc1C(=O)Nc1ccc(C(=O)N2CCN(C(=O)[C@H]3C[C@@H](N)C3)CC2)c(Cl)c1 [Example 73, N-[4-[4-(3-aminocyclobutanecarbonyl)piperazine-1-carbonyl]-3-chlorophenyl]-5-[1-(cyanomethyl)-3-(trifluoromethyl)pyrazol-4-yl]-1-methylimidazole-2-carboxamide;2,2,2-trifluoroacetic acid] | 2550

same assay, conditions: Acinetobacter baumannii, ATCC17961, read-out: ATCC 17961 IC90, Acinetobacter baumannii ATCC 17961, Iso-Sensitest broth

Row | Structure (SMILES) | IC90 [nM]
23 | C=C=Cn1cc(-c2cnc(C(=O)Nc3ccc(C(=O)N4CCN(C(=O)C5CCNCC5)CC4)c(Cl)c3)n2C)c(C(F)(F)F)n1 [Example 65, N-[3-chloro-4-[4-(piperidine-4-carbonyl)piperazine-1-carbonyl]phenyl]-1-methyl-5-[1-propa-1,2-dienyl-3-(trifluoromethyl)pyrazol-4-yl]imidazole-2-carboxamide; Hydrochloride] | 260
